In patent US20210122763A1, “OGA INHIBITOR COMPOUNDS” (Janssen Pharmaceutica NV, priority 2018, published 2021):

Tests used:
[1] = biological target: T1, OGA (Homo sapiens, UniProt O60502); test: OGA cellular assay (ICC detection of O-GlcNAcylated proteins in HEK293 cells inducible for P301L mutant human Tau); assay type: cell-based; conditions: 6 hours incubation; for Emax: HEK293, HEK293 cells inducible for P301L mutant human Tau; for Emax / Cellular Emax (%): maximum = Thiamet G 200 uM; for EC50 / Cellular Emax (%): HEK293 cells inducible for P301L mutant human Tau; for EC50: read-out: Cellular hOGA, pEC50 (converted)
T1 construct: HEK293 cells inducible for P301L mutant human Tau (isoform 2N4R) were established at Janssen; endogenous in cells; host or cells: HEK293 cells inducible for P301L mutant human Tau (2N4R)
T1 sequence (O60502 1-916): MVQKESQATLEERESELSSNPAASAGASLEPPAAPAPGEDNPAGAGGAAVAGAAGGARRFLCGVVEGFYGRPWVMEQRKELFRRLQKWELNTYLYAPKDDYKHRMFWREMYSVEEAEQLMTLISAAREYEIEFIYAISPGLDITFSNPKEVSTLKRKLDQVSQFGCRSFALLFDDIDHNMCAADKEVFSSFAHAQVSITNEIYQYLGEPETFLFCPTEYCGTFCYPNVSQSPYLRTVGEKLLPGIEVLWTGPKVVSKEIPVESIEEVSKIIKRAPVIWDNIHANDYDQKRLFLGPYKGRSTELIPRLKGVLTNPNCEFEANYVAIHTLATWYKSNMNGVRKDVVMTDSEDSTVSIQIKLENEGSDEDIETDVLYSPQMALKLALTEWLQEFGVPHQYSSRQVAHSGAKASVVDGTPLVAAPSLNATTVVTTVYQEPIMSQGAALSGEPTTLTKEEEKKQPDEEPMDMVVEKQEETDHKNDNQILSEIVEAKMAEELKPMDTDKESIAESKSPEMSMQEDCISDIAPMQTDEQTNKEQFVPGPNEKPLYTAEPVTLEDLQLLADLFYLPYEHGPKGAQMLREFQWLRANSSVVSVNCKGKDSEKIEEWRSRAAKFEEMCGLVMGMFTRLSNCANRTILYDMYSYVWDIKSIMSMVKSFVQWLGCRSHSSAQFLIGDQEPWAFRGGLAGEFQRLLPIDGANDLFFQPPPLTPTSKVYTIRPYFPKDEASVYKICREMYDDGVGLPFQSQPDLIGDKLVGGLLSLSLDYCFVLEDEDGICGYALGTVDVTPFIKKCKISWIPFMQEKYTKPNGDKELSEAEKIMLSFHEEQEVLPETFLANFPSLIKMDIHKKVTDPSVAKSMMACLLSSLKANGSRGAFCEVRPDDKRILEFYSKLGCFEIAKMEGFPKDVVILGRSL
Outline: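 HEK293 cells with inducible P301L 2N4R Tau, seeded in low-glucose medium, were exposed to compounds for 6 hours (0.2% DMSO), then PFA-fixed and stained with CTD110.6. Imaging intensity at 488 nm measured O-GlcNAcylation, with Hoechst nuclei counts for toxicity. IC50s came from non-linear regression, with Thiamet G at 200 uM as maximum inhibition.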

[2] = biological target: T2, recombinant human Meningioma Expressed Antigen 5 (MGEA5), also referred to as O-GlcNAcase (OGA) (Homo sapiens, UniProt O60502); test: OGA biochemical assay (inhibition of FM-GlcNAc hydrolysis, fluorescence); conditions: for Emax: read-out: Enzymatic Emax (%); for IC50: read-out: Enzymatic hOGA, pIC50 (converted)
T2 construct: Full length OGA enzyme was purchased at OriGene (cat #TP322411); purchased OriGene TP322411
T2 sequence (O60502 1-916): T1 sequence (O60502 1-916)
Outline: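 Full-length OGA at 2 nM was pre-incubated 60 min at room temperature with compound, then FM-GlcNAc at 100 uM final was added in citrate/phosphate buffer pH 7.2 with 0.005% Tween-20. After 6 h at room temperature, carbonate pH 11.0 stopped the reaction. Fluorescence read at 485/538 nm; IC50 and Hill coefficient from curve fit against no-inhibitor and saturating-standard controls.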

SMILES	Emax [1]	EC50 [1]	Emax [2]	IC50 [2]	Cellular Emax (%) [1]	Enzymatic Emax (%) [2]
Cc1ncccc1OC1CCN(C(C)c2ccc3c(n2)OCCO3)CC1 (stereo not drawn) [Compound 116]	42%	> 1 µM	96%	0.126 µM		
Cc1cc(OC2CCN(C(C)c3cnc4c(c3)OCCN4)CC2)cc(C)n1 (stereo not drawn) [Compound 34]	77%	0.158 µM	102%	0.158 µM		
COc1cc(OC2CCN(C(C)c3cnc4c(c3)OCCO4)CC2)cc(C)n1 (stereo not drawn) [Compound 37]	23%	> 1 µM	98%	0.398 µM		
CC(c1ccc2c(n1)OCCO2)N1CCC(Oc2cnc(Cl)c(F)c2)CC1 (stereo not drawn) [Compound 69]	68%	0.501 µM	95%	0.0794 µM		
Cc1ccc(OC2CCN(C(C)c3nc4c(cc3F)OCCO4)CC2)nc1 (stereo not drawn) [Compound 165]	72%	0.316 µM	94%	0.0158 µM		
CC(c1ccc2c(n1)OCCO2)N1CCC(COc2ccc(C(F)(F)F)cn2)CC1 (stereo not drawn) [Compound 43]	25%	> 1 µM	96%	0.501 µM		
Cc1cc(OC2CCN(C(C)c3ccc4c(n3)OCCO4)CC2)cc(C)n1 (single isomer, unassigned) [Compound 2]		> 1 µM		> 10 µM	−14%	29%
Cc1ccc(OC2CCN(C(C)c3ccc4c(n3)OCCO4)CC2)cn1 (stereo not drawn) [Compound 41]	74%	0.501 µM	99%	0.0501 µM		
CC(c1ccc2c(n1)OCCO2)N1CCC(Oc2cncc(F)c2)CC1 (stereo not drawn) [Compound 74]	44%	> 1 µM	99%	0.1 µM		
Cc1cc(OC2CCN(C(C)c3ccc4c(n3)OCCO4)CC2)cc(C(C)C)n1 (stereo not drawn) [Compound 130]	59%	0.245 µM	100%	0.0398 µM		
CC(c1nc2c(cc1F)OCCO2)N1CCC(Oc2ccc(C3CC3)nc2)CC1 (stereo not drawn) [Compound 164]	72%	0.0676 µM	96%	0.00794 µM		
CC(C)c1ncc(OC2CCN(C(C)c3ccc4c(n3)OCCO4)CC2)cn1 (stereo not drawn) [Compound 119]	68%	0.331 µM	100%	0.0631 µM		
Cc1cc(OC2CCN(C(C)c3ccc4sc(C)nc4n3)CC2)cc(C)n1 (stereo not drawn) [Compound 7]	71%	0.398 µM	100%	0.0631 µM		
Cc1cnc(OC2CCN(C(C)c3nc4c(cc3F)OCCO4)CC2)cc1C (stereo not drawn) [Compound 157]	80%	0.158 µM	94%	0.02 µM		
COc1cnccc1OC1CCN(C(C)c2ccc3c(n2)OCCO3)CC1 (stereo not drawn) [Compound 98]	47%	0.501 µM	94%	0.2 µM		
Cc1cccc(OC2CCN(C(C)c3ccc4c(n3)OCCO4)CC2)n1 (stereo not drawn) [Compound 46]	33%	> 1 µM	98%	0.158 µM		
Cc1cc(OC2CCN([C@@H](C)c3nc4c(cc3F)CCO4)CC2)cc(C)n1 (single isomer, unassigned) [Compound 145]	8%	> 1 µM	86%	1.58 µM		
Cc1ccc(COC2CCN(C(C)c3nc4c(cc3F)OCCO4)CC2)cn1 (stereo not drawn) [Compound 138]	79%	0.158 µM	100%	0.02 µM		
Cc1cnc(C)c(OC2CCN(C(C)c3nc4c(cc3F)OCCO4)CC2)n1 (stereo not drawn) [Compound 87]	62%	0.355 µM	97%	0.0158 µM		
CC(c1ccc2c(n1)OCCO2)N1CCC(Oc2ccc(C(F)(F)F)cn2)CC1 (stereo not drawn) [Compound 42]	21%	> 1 µM	101%	0.1 µM		

SMILES	Emax [1]	EC50 [1]	Emax [2]	IC50 [2]	Cellular Emax (%) [1]	Enzymatic Emax (%) [2]
Cc1cc(OC2CCN(C(C)c3ccc4c(n3)OCCO4)CC2)c(Cl)c(C)n1 (stereo not drawn) [Compound 66]	73%	0.251 µM	96%	0.0794 µM		
Cc1cc(OC2CCN(C(C)c3nc4c(cc3F)OCCO4)CC2)cc(C)n1 (stereo not drawn) [Compound 4]	76%	0.0398 µM	99%	0.0126 µM		
COc1cc(OC2CCN(C(C)c3nc4c(cc3F)OCCO4)CC2)ncc1C#N (stereo not drawn) [Compound 153]	67%	0.2 µM	95%	0.0316 µM		
Cc1cc(OC2CCN(C(C)c3ccc4c(n3)OCCO4)CC2)ccn1 (stereo not drawn) [Compound 45]	59%	0.631 µM	96%	0.1 µM		
Cc1cc(OC2CCN(C(C)c3ccc4sc(C)nc4n3)CC2)c(Cl)c(C)n1 (stereo not drawn) [Compound 27]	76%	0.501 µM	99%	0.1 µM		
COc1ccc(OC2CCN(C(C)c3ccc4c(n3)OCCO4)CC2)nc1 (stereo not drawn) [Compound 99]	34%	> 1 µM	98%	0.158 µM		
CCc1cc(OC2CCN(C(C)c3ccc4c(n3)OCCO4)CC2)cc(C)n1 (stereo not drawn) [Compound 129]	83%	0.126 µM	97%	0.0631 µM		
CC(c1ccc2c(n1)OCCO2)N1CCC(Oc2cc[nH]c(=O)c2)CC1 (stereo not drawn) [Compound 93]	34%	> 1 µM	98%	0.251 µM		
COc1cc(OC2CCN(C(C)c3ccc4c(n3)OCCO4)CC2)cc(C)n1 (single isomer, unassigned) [Compound 54]		0.126 µM		0.0126 µM	83%	100%
Cc1cccnc1OC1CCN(C(C)c2ccc3c(n2)OCCO3)CC1 (stereo not drawn) [Compound 70]	46%	> 1 µM	98%	0.398 µM		
CC(c1ccc2c(n1)OCCO2)N1CCC(Oc2ccc(C(F)(F)F)nc2)CC1 (stereo not drawn) [Compound 68]	57%	0.794 µM	94%	0.0794 µM		
COc1cc(OC2CCN(C(C)c3ccc4sc(C)nc4n3)CC2)cc(C)n1 (stereo not drawn) [Compound 16]	91%	0.126 µM	99%	0.0251 µM		
C[C@@H](c1ccc2c(n1)OCCO2)N1CCC(Oc2ccc(C(N)=O)nn2)CC1 (single isomer, unassigned) [Compound 106]	48%	0.631 µM	95%	0.126 µM		
Cc1nccnc1OC1CCN(C(C)c2nc3c(cc2F)OCCO3)CC1 (stereo not drawn) [Compound 111]	77%	0.2 µM	98%	0.0501 µM		
CC(c1ccc2c(n1)OCCO2)N1CCC(Oc2cnc(C3CCC3)nc2)CC1 (stereo not drawn) [Compound 163]	34%	> 1 µM	92%	0.126 µM		
CC(c1nc2c(cc1F)OCCO2)N1CCC(Oc2ccnc(C#N)c2)CC1 (stereo not drawn) [Compound 155]	67%	0.0794 µM	94%	0.0158 µM		
CC(c1nc2c(cc1F)OCCO2)N1CCC(Oc2ccc(C#N)nn2)CC1 (stereo not drawn) [Compound 92]	66%	0.126 µM	97%	0.0251 µM		
Cc1cc(OC2CCN(C(C)c3ccc4c(n3)OCCO4)CC2)nc(C)n1 (single isomer, unassigned) [Compound 10]	73%	0.631 µM	100%	0.0501 µM		
Cc1cc(OC2CCN(C(C)c3ccc4c(n3)OCCO4)CC2)cc(C)n1 (single isomer, unassigned) [Compound 3]		0.251 µM		0.0501 µM	83%	103%
